Laboratory results: US20260200903A1, “PHARMACEUTICAL COMPOSITION FOR AMELIORATING MALIGNANT DISEASES” (KINKI UNIVERSITY, priority 2020, published 2026)

Experiments:
Format in all cases: cell-based
Raji cells = assay: Cell death-inducing effect of rituximab in Raji cells, trypan blue staining; settings: cell viability
Text: (§1) Referring to FIG. 7, the horizontal axis is the rituximab concentration (μg/mL) and the vertical axis is the cell viability (%). […] However, the cell viability was clearly higher in RR1 cells, confirming that they are resistant to rituximab.

RR1 cells = assay: Cell death-inducing effect of rituximab in RR1 cells, trypan blue staining
Text: Raji cells, a burkitt lymphoma cell line, were modified to be rituximab-resistant and named RR1 cells.
as §1

KMS-28BM cells = assay: Cell death in KMS-28BM cells by each compound in combination with rituximab, trypan blue staining; settings: 10 days with 0.1 M9, 0.01 μM M14/M15/M16, 0.5 μM M18/M19, then human serum and rituximab
Protocol: As a control, compounds untreated KMS-28BM cells were seeded in 75 cm^2 flasks and incubated for 10 days at 37° C. and 5% CO2. KMS-28BM cells were seeded into 75 cm^2 flasks and pre-cultured for 24 h. After incubation, KMS-28BM cells were treated with […], 0.01 μM M14, 0.01 μM M15, 0.01 μM M16, 0.5 μM M18, and 0.5 μM M19 at final concentrations, and incubated for 10 days at 37° C. and 5% CO2. This added amount is a concentration lower than the IC50 of the above compounds for KMS-28BM cells.
After 10 days of incubation, cells were seeded into 96-well plates, human serum and 10 µg/mL rituximab were added, and cell viability was determined by the trypan blue staining.
For controls, only 0.5% DMSO (diluted in PBS) used to dissolve the compounds was added.

“rituximab: an anti-CD20 monoclonal antibody” was tested, and the “IC50 of Raji cells to rituximab” value (Raji cells) was 0.121 µg/mL, the “IC50 of RR1 cells to rituximab” value (RR1 cells; RR1 cells, cell viability) was 98 µg/mL and the “resistance of RR1 cells to rituximab relative to Raji cells” value (RR1 cells; ratio of IC50 RR1 / Raji) was “approximately 809 times”. For the same substance, the “cell death induction compared to control” value (KMS-28BM cells) was “did not induce cell death”.
